The values that follow are results of earlier work, collected in US20200353057A1, “REDUCING IMMUNOGENICITY TO PEGLOTICASE” (Horizon Pharma Rheumatology LLC, priority 2019, published 2020).

Series [1] deals with patients treated with allopurinol. The conditions noted are these: human, in vivo.
For series [2] the following is noted: diluted in infusion bags.
The subject of series [3] is patients with refractory chronic gout. The settings on record: Phase 2 program.
Series [4] shares this test system.
Series [5] concerns organ transplant recipients. The settings on record: in vivo.
For series [6], the system named is subjects with refractory gout. The settings on record: doses of 4 to 12 mg, within 24 to 72 hours, from 11.1±0.6 mg/dL.
For series [7] the following is noted: for Detectable in urine: after 8 hours; for Bound to serum proteins: in vivo.
Series [8] concerns patients with lupus nephritis. The conditions noted are these: in vivo.
Series [9] has as its system renal transplant and RA patients.

Read-outs that look alike come from different tables or passages of the source. Where only a bound is given, the exact number is not on record here.

As for `Oc1ncnc2[nH]ncc12` [allopurinol], in series [1], the “Patients who develop allergic reactions” value was “Approximately 2%” and the “Patients with severe hypersensitivity syndrome” value is reported as “about 0.4%”.

For the molecule pegloticase, in [2] (2° C. to 8° C.), the “Stability of diluted solution” value was 4 h. Further, in series [2] (room temperature (20° C. to 25° C.)), the “Stability of diluted solution” value is 4 h. Besides, in series [3], the Dose-response plateau dose is 12 mg; the Minimally effective dose is 4 mg; the “Safe and optimally effective dose” value was 8 mg. Moreover, the “Patients maintaining a response, antibody titer exceeding 1:2430 at any time” value in series [4] (7 of 65 patients, another study) is on record as 10.8%. Moreover, the “Patients with IRs in whom loss of response (return to SUA ≥6 mg/dL) preceded the first IR” value in series [4] (20/21) was 95%. The “Patients with titers exceeding 1:2430 who developed IRs” value in series [4] (31 of 52) is 60%. In addition, the “Patients maintaining a response, never had an antibody titer above 1:2430” value in series [4] (58/65, another study) is 89.2%. In addition, the “Patients who developed high titer anti-pegloticase antibodies and subsequently lost response” value in series [4] (69 of 169 patients, one study) is 41%. Further, in [4] (KXX-treated patients), the “Occurrence of most common adverse reactions (gout flares, infusion reactions, nausea, contusion or ecchymosis, nasopharyngitis, constipation, chest pain, anaphylaxis, vomiting)” value is at least 5%. The “Occurrence of ecchymoses, sore throat, constipation, chest pain, and vomiting” value in [4] (patients treated with pegloticase) is given as “at least 5%”. Moreover, the “Incidence of infusion-related reactions” value in series [4] (pooled Phase 3, 8 mg biweekly dosing) is 26%. Moreover, the “Incidence of infusion-related reactions” value in [4] (pooled Phase 3, 8 mg every-4-week dosing regimen) was 40%. Besides, the Anaphylaxis frequency in series [4] (pre-marketing controlled clinical trials) is on record as 6.5%. Also, the Infusion reactions reported in [4] (pre-marketing controlled clinical trials, 8 mg every 2 weeks) was 26%. In addition, in [4] (second study), the “Participants with high antibody titers who maintained a response (serum urate <6 mg/dL)” value was 1 of 52 and the “Participants with high titers who developed IR” value is 60%. The “Organ transplant recipients with a sustained high titer Ab response to pegloticase” value in series [5] is listed as “one out of seven”. Moreover, the “pUAc (plasma urate concentration) after dosing, mean±SD” value in series [6] is given as 1.0±0.5 mg/dL.

`Sc1ncnc2nc[nH]c12` [mercaptopurine, 6-mercaptopurine]: in [7], the Detectable in urine entry was “no mycophenolate mofetil or mercaptopurine is detectable in urine” and the “Bound to serum proteins” value is on record as 30%.

On to “rituximab: biologic arm of a lupus nephritis RCT on top of MMF and glucocorticoids”, for which the “Rate of serious infections” value in [8] is 16.6 /100 patient-years.

Regarding `COc1c(C)c2c(c(O)c1C/C=C(\C)CCC(=O)OCCN1CCOCC1)C(=O)OC2` [Mycophenolate mofetil, 2-morpholinoethyl (E)-6-(1,3-dihydro4-hydroxy-6-methoxy-7-methyl-3-oxo-5-isobenzofuranyl)-4-methyl-4-hexenoate], the Teratogenic effects entry in the series on rats is “teratogenic effects”. Moreover, the Teratogenic effects entry in the series with rabbits is “teratogenic effects”. In [9] (RA), the “Increased susceptibility to infection” value is below 1%; the Leukopenia was 28%; the Nausea and vomiting is 12%. Further, in [9] (renal transplant), the “Increased susceptibility to infection” value was 20%, the Leukopenia was above 50%, the “Neoplasia (lymphoma)” value is listed as 0.5% and the “Neoplasia (other than lymphoma)” value is reported as 3%. Also, in series [7], the Detectable in urine result is “no mycophenolate mofetil or mercaptopurine is detectable in urine” and the “Bound to serum proteins” value was 30%. The “Absorption following oral administration” value in [7] (oral) was “well absorbed”.
